In patent US20220151979A1, “COMPOSITION FOR PREVENTION OR TREATMENT OF CARDIOVASCULAR AND METABOLIC DISEASE COMPRISING NORANHYDROICARITIN” (SEOUL NATIONAL UNIVERSITY HOSPITAL, priority 2019, published 2022):

Columns and labels:
[1] = system: PPARα; test: PPARα expression in HepG2 cells (RealTime-PCR, immunohistochemistry); assay type: cell-based, human
Protocol: In order to confirm the effect of increasing the expression of PPARα and PPARγ of noranhydroicaritin, PCR using PPARα primers and immunohistochemistry targeting PPARα and PPARγ were performed to confirm the expression levels.
Using cDNA synthesized with RNA according to the method of Example 4, the quantities of PPARα mRNA and PPARγ mRNA were confirmed through RealTime-PCR analysis. The group treated only with DMSO was used as a negative control. For immunohistochemistry, HepG2 cells were attached to a slide chamber, then treated with noranhydroicaritin at 20 μM, and incubated. After fixation with formalin, the HepG2 cells were stained with antibodies targeting PPARα and PPARγ, and treated with DAPI to stain nuclei, and the degree of fluorescent expression was confirmed using a confocal microscope.

[2] = system: SREBP 1 promoter; test: SREBP 1 promoter-reporter luciferase assay in HEK293T cells; assay type: cell-based, human; settings: pGL4.14-SREBP-transfected HEK293T cells, 18 hours, compared to control
Protocol: (§1) In order to confirm the SREBP gene expression inhibitory effect of noranhydroicaritin, HEK293T cells were treated with noranhydroicaritin and kaempferol, and it was confirmed whether the expression of SREBP was inhibited through a luciferase assay.
(§2) i) A primer was prepared to contain KpnI and XhoI restriction enzyme sites in the SREBP 1 and 2 promoter gene region, and then PCR (polymerase chain reaction) and electrophoresis on an agarose gel were performed to isolate SREBP promoter region DNA. A pGL4.14-[luc2/Hygro] vector containing a firefly luciferase as a reporter gene was treated with the same restriction enzymes (KpnI and XhoI), and then isolated via agarose gel electrophoresis and gel extraction. The purely isolated SREBP promoter gene region and pGL4.14-[luc2/Hygro] vector were reacted for 1 hour using In-fusion DNA ligase (Takara), and then transformed into E. coli to prepare a promoter-reporter construct in which the SREBP promoter was inserted, and this was named pGL4.14-SREBP.
(§3) ii) In order to measure the transcriptional activity of the SREBP promoter gene, HEK293T cells were transfected with pGL4.14-SREBP, and then the luciferase activity of the cell extract was measured. […] Thereafter, the luciferase activity was measured by the method of Example 6. […]

[3] = system: SREBP 2 promoter; test: SREBP 2 promoter-reporter luciferase assay in HEK293T cells; assay type: cell-based, human; settings: pGL4.14-SREBP-transfected HEK293T cells, 18 hours, compared to control
Protocol: as §1, §2, §3

[4] = system: PCSK9; test: Immunoblot of PCSK9 in HepG2 cells, noranhydroicaritin and pravastatin, pitavastatin, fluvastatin or simvastatin (Table 1); assay type: cell-based, human; settings: noranhydroicaritin 20 μM singly, untreated = 1 ± 0.04
Protocol: The cells aliquoted by the method of Example 7 were treated with noranhydroicaritin or each statin (pravastatin, pitavastatin, fluvastatin, or simvastatin) singly or with noranhydroicaritin and a statin (pravastatin, pitavastatin, fluvastatin, or simvastatin) simultaneously, and the proteins were extracted. On an SDS-polyacrylamide gel, 30 μg of each protein was electrophoresed, and attached to a membrane, and then protein expression levels were confirmed using the respective antibodies: PCSK9 and LDLR.

[5] = system: IL-1B; test: Immunofluorescence of IL-1B in carotid artery, mouse arteriosclerosis model; assay type: in vivo; settings: 10 μg/g/day
Protocol: (§4) Carotid artery ligation was performed one week after injection of AAV-PCSK9 Virus (1×10^11 IFU/mL) and noranhydroicaritin (10 μg/g/day). After 3 weeks of ligation, it was confirmed whether the atherosclerosis model was completed, and gross plaque imaging and immunofluorescence were performed to confirm the arteriosclerosis inhibitory effect of noranhydroicaritin.
(§5) Furthermore, the arteriosclerosis inhibitory effect of noranhydroicaritin was confirmed using immunofluorescence. Specifically, a mouse carotid artery was obtained and fixed in 4% PFA for one day, and then prepared into a block. As the inflammatory response in blood vessels progresses, the arteriosclerosis worsens, and thus the marker […] of macrophages causing arteriosclerotic inflammatory response and TNF-α, IL-1B, and MCP-1, which are pro-inflammatory cytokines secreted when the inflammatory response occurs, were stained. Staining was performed using the antibody for each of CAP1(1:200), PCSK9(1:100), F4/80(1:100), TNF-α(1:100), […], and MCP-1(1:100), then imaging was performed using a confocal microscope, and […] was evaluated.

[6] = system: F/480; test: Immunofluorescence of macrophage marker F/480 in carotid artery, mouse arteriosclerosis model; assay type: in vivo; settings: 10 μg/g/day
Protocol: as §4, §5

CC(C)=CCc1c(O)cc(O)c2c(=O)c(O)c(-c3ccc(O)cc3)oc12 [Noranhydroicaritin, noranhydroicaritin]
expression of PPARα [1]: increased in a concentration-dependent manner | SREBP 1 luciferase activity [2]: significantly decreased | SREBP 2 luciferase activity [3]: significantly decreased | PCSK9 [4]: 0.34 ± 0.02 | expression of IL-1B (immunofluorescence) [5]: decreased | expression of F/480, a marker of macrophages (immunofluorescence) [6]: also decreased
